Data set [1] concerns A549 cells. The data set can be described thus: Digital PCR (ddPCR) detection of nucleic acid delivery by lipid into A549 cells. The class given is cell-based, human. The following applies: single lipid; boiling or reverse evaporation method. The protocol:
Referring to the QX200 Droplet Reader and QuantaSoft Software manual for the protocols, the results were analyzed using QuantaSoft software.
2.2 Experimental method: total RNA was collected and extracted by TRIzol lysis buffer according to the above method, and reverse transcribed to cDNA using High capacity cRNA Reverse Transcription Kit, and the cDNA from different groups was subjected to digital PCR reaction.
2.2 Experimental method: Total RNA was collected and extracted by TRIzol lysis buffer according to the above method, and reverse transcribed to cDNA using TaqMan™ MicroRNA Reverse Transcription KitHigh, and the cDNA from different groups was subjected to digital PCR reaction.
2.2 Experimental method: Total RNA was collected and extracted by TRIzol lysis buffer according to the above method, and reversed to cDNA using High capacity CRNA Reverse Transcription Kit, and the cDNA from different groups was subjected to digital PCR reaction.

Data set [2] relates to A549 cells. The data set can be described thus: Flow cytometry of green fluorescent protein delivered by lipid into A549 cells. Format: cell-based, human. As to conditions: 10 μg/mL lipid; reverse evaporation method; 6 hours. The protocol: (§1) Experimental method: The bencaosome was prepared by reverse evaporation of ether. 0.2 nmol green fluorescent protein dissolved in 20 μl water was added to 100 μl ether solutions containing 0 μg, 1 μg, 3 μg lipid respectively. After fully mixing, sonication was conducted for 3 min. After evaporation at 60° C. to remove organic solvent, the bencaosome solution was obtained by hydrating with 100 μL opti-MEM. Then the bencaosome was added to A549 cells and co-incubated for 6 hours. The samples were collected and tested. After washing three times with PBS, the samples were digested with trypsin for three minutes. The trypsin was removed, and then the samples were washed with PBS and blown off. Accuri® C6 instrument was used to measure.
as §1, with “method.” for “of ether.”, “The trypsin was removed, and then the samples were washed with PBS and blown off. Accuri® C6 instrument was used to measure.” left out
A general note: In flow cytometry, cells or beads pass a laser one at a time.

Data set [3] deals with A549 cells. Nature of the data set: Confocal fluorescence microscopy of green fluorescent protein delivered by lipid into A549 cells. The class given is cell-based, human. The following applies: reverse evaporation method; 6 hours. The protocol:
Experimental method: The bencaosome was prepared by reverse evaporation method. 0.2 nmol green fluorescent protein dissolved in 20 μl water was added to 100 μl ether solutions containing 0 μg, 0.25 μg, 0.75 μg lipid respectively. After fully mixing, sonication was conducted for 3 min. After evaporated at 60° C. to remove organic solvent, the bencaosome solution was obtained by hydrating with 100 μL opti-MEM. Then the bencaosome was added to A549 cells and co-incubated for 6 hours. The samples were collected and tested. After washing three times with PBS, the samples were fixed with 4% paraformaldehyde. After washing three times with PBS, the samples were stained with Alexa Fluor® 488 phalloidin for 30 min. After washing three times with PBS, the samples were stained with Dapi for 5 min, then washed with PBS and sealed for observation.

Data set [4] relates to A549 cells. Nature of the data set: RT-qPCR detection of nucleic acid delivered by lipid into A549 cells. As to conditions: HJT-sRNA-m7 double-stranded RNA, reverse evaporation method. The class given is cell-based, human. On the technique in general: In qPCR the cycle at which signal appears reflects the starting amount.
Data set [5] concerns fibronectin and α-SMA. Nature of the data set: Fibronectin/α-SMA protein expression in TGF-β1-stimulated MRC-5 cells after small RNA delivered by lipid or bencaosome (Western blot). Format: cell-based, human. As to conditions: Examples 5 and 8; nucleic acid 400 nM; TGF-β1 3 ng/mL, 72 hours. On the technique in general: A western blot detects proteins with antibodies after separation by electrophoresis.

The subject of data set [6] is A549 cells. Nature of the data set: Confocal fluorescence microscopy of lipid-delivered nucleic acid in A549 cells. The class given is cell-based, human. The following applies: boiling method; 6 hours. The protocol:
[…] Then the mixture was dropped into A549 cells, and after 6 hours of co-incubation, the samples were washed three times with PBS, fixed with 4% paraformaldehyde, washed three times with PBS, stained with Alexa Fluor® 488 phalloidin for 30 min, washed 3 times with PBS, and stained with DAPI for 5 min, washed with PBS, and then sealed.
[…] Then, the mixture was dropped into A549 cells, and after 6 hours of co-incubation, the samples were washed three times with PBS, fixed with 4% paraformaldehyde, washed three times with PBS, stained with Alexa Fluor® 488 phalloidin for 30 min, washed 3 times with PBS, and stained with DAPI for 5 min, PBS washed, and then sealed.

Data set [7] in a line: In vivo delivery of small RNA into mouse blood, stomach, small intestine and liver via gavage (RT-qPCR). The following applies: Example 11; 10 μL single lipid + sRNA 1 nmol each, heating method; 12 hours.
Protocol: [Experimental method] 6-8 weeks old mice, 22-24 g, were raised in SPF room of the Animal Center of the Institute of Basic Medical Sciences of Chinese Academy of Medical Sciences. The mice were fasted for 12 hours before intragastric administration. The mice were randomly divided into 3 groups: (1) control group, 400 μl DEPC-treated water, intragastric administration; (2) free uptake group, small RNA (PGY-sRNA-26, PGY-sRNA-32 and PGY-sRNA-23), each small RNA 1 nmol/animal, dissolved in 400 μl DEPC-treated water, intragastric administration; (3) lipid No. 41 group: a mixture of small RNA (PGY-sRNA-26 and PGY-sRNA-32) and lipid No. 41 prepared by heating method was intragastrically administered, each small RNA 1 nmol/animal, lipid No. 41 10 μl/animal, dissolved in 400 μl DEPC-treated water. All tissue and organ samples were collected after 6 hours of intragastric administration. All small RNAs were single-stranded RNA modified by 3p-terminal 2-O-methylation.
After 12 hours, the sample was collected to detect the amount of entry. In Vivo Delivery Experiment of Lipid Nucleic Acid Mixture • 1. […] LightCycler 480 fluorescence quantitative PCR instrument was used, and the PCR reaction conditions were: 95° C., 5 min for pre-denaturation, followed by the PCR amplification cycle: (1) 95° C., 10 s; (2) 55° C., 10 s; (3) 72° C., 20 s; a total of 40 cycles; 40° C. for 10 s in the end to cool down. […]

In the case of `CCCCCCCC/C=C\CCCCCCCCCCCC(=O)O[C@H](COC(=O)CCCCCCCCCCCCCCC)COP(=O)(O)OCCN` [lipid No. 40, PE(16:0/22:1)], the “delivery of HJT-sRNA-m7 dsRNA into A549 cells (ddPCR)” value in data set [1] was “could effectively deliver HJT-sRNA-m7 dsRNA into A549 cells”. The “efficiency to deliver green fluorescent protein into A549 cells” value in data set [2] is 7.2%. The “entry of green fluorescent protein into A549 cells (confocal microscope)” value in data set [3] is reported as “could effectively deliver protein into A549 cells”. For the same compound, the “delivery effect of lipid compared with RNAiMAX (RT-qPCR)” value in data set [4] is recorded as “½”. In addition, the “inhibition by HJT small RNA at protein level in MRC-5 cells (Western blot)” value in data set [5] is recorded as “mediated anti-fibrotic double-stranded RNA HJT-sRNA-m7 entry into MRC-5 cells to down-regulate fibronectin protein expression”. For the same compound, the “entry of PGY-sRNA-6-Cy3 into A549 cells (confocal microscopy)” value in data set [6] is given as “could effectively deliver single-stranded RNA into A549 cells”. Besides, the “delivery of sRNA single-stranded nucleic acid into mouse blood via oral administration” value in data set [7] is “the delivery effect was better than POPC and Lipofectamine RNAiMAX”.

(Values after patent US12280114B2, “Extraction of plant source “medicinal soup” and manual preparation of “herbal medicine” and related products” (BEIJING BAISHIHEKANG PHARMACEUTICAL TECHNOLOGY (BSJPHARMA) …, priority 2018, dated 2025).)
